Reference: patent US9468648B2, “Treatment including prebiotic composition for use with probiotics” (MASTER SUPPLEMENTS, INC., priority 2010, dated 2016)

Tests used:
Assay type in all cases: cell-based
[1] = system: THERALAC® Lot #32310A probiotic strains; experiment: Growth of the commercial probiotic […] in MRS broth; conditions: for pH: 0.1% in MRS (Polysorbate 80: 1.0 g/l)
Protocol: MRS broth was prepared with (for controls) and without (for tests) polysorbate 80 and filled into 1 liter screw cap flasks at 500 ml each and autoclaved at 121° C. for 30 minutes. Various lecithin and/or oleic acid additives, or nothing (negative control), was added to the tests flasks prior to autoclaving. The flasks were then tempered to 37° C. in a water bath and inoculated at 0.1% with […]® Lot #32310A, a commercial probiotic product (Master Supplements, Inc., Victoria, Minn.). Capsules of […]® were opened and the contents mixed aseptically to serve as the inoculum source. At an inoculation rate of 0.1%, approximately 80 million CFU was added per ml of MRS media. […]® contains (formulation strength) the following probiotic strains at the approximate CFU values listed per gram: Turbidity, pH and titrations (made with 0.1 N NaOH and reported as % lactic acid) were made at various times up to 23 hours. The results are presented below in Table VI for the 12 and 23-hour analyses.

[2] = system: Lactobacillus rhamnosus-Lr-32 (LR-44); experiment: Growth (turbidity) and lactic acid producing activity in MRS broth, L. rhamnosus Lr-32; conditions: for pH: 0.1% in MRS (Polysorbate 80: 1.0 g/l)
Protocol: (§1) Each flask was tempered to 37° C. and aseptically inoculated with 0.14 gm of the individual probiotic strains (in Examples 5 to 10 below) to be tested. At specified time intervals, a 30 ml sample from each flask was aseptically transferred into a HACH […] Turbidimeter sample cell. The turbidity of each sample was read and the results were reported in NTU's. The same 30 ml sample used for the turbidity reading was transferred into a 250 ml glass beaker, and the pH was recorded. The sample was titrated using 0.1 N NaOH to an endpoint of pH 6.8, and the quantity of NaOH used was recorded. The % Lactic Acid was calculated using the following formula: % Lactic Acid=((mls of 0.1N NaOH)×(0.1N)×(90 gm/mole)×(1 L/1000 ml))×100 mls of sample % Lactic Acid=(mls of 0.1N NaOH)×(0.9) (Results reported at 12 hours and 23 hours like: 12/23 in Table IV below)

[3] = system: Lactobacillus paracasei Lpc-37 (F-19); experiment: Growth (turbidity) and lactic acid producing activity in MRS broth, L. paracasei Lpc-37
Protocol: as §1, with “III” for “IV”

[4] = system: Lactobacillus salivarius-Ls-33 (LS-30); experiment: Growth (turbidity) and lactic acid producing activity in MRS broth, L. salivarius Ls-33; conditions: for pH: 0.1% in MRS (Polysorbate 80: 1.0 g/l)
Protocol: as §1, with “V” for “IV”

[5] = system: Lactobacillus acidophilus NCFM (LA-1); experiment: Growth (turbidity) and lactic acid producing activity in MRS broth, L. acidophilus NCFM; conditions: for pH: 0.1% in MRS (Polysorbate 80: 1.0 g/l)
Protocol: as §1, with “At” for “Each flask was tempered to 37° C. and aseptically inoculated with 0.14 gm of the individual probiotic strains (in Examples 5 to 10 below) to be tested. At”, “I” for “IV”

[6] = system: Bifidobacterium lactis Bl-04 (BL-34); experiment: Growth (turbidity) and lactic acid producing activity in MRS broth, B. lactis Bl-04; conditions: 0.1% in MRS (Polysorbate 80: 1.0 g/l)
Protocol: as §1, with “II” for “IV”

[7] = 0.1% in MRS (Polysorbate 80: 1.0 g/l), 12 hours

Compound | effectiveness as polysorbate 80 replacement (growth and activity) ([1]; 0.1% inclusion rate) | effectiveness as polysorbate 80 replacement (growth and activity) ([2]; 0.1% inclusion rate) | effectiveness as polysorbate 80 replacement (growth and activity) ([3]; 0.1% inclusion rate) | effectiveness as polysorbate 80 replacement (growth and activity) ([4]; 0.1% inclusion rate) | effectiveness as polysorbate 80 replacement (growth and activity) ([5]; 0.1% inclusion rate) | pH ([1]; 12 hours) | pH ([1]; 23 hours) | Lactic Acid % ([6]; 12 hours) | pH ([6]; 12 hours) | Lactic Acid % ([6]; 23 hours) | pH ([6]; 23 hours) | pH ([2]; 12 hours) | pH ([2]; 23 hours) | Lactic Acid % [3, 7] | pH [3, 7] | pH ([3]; 0.1% in MRS (Polysorbate 80: 1.0 g/l), 23 hours) | pH ([4]; 12 hours) | pH ([4]; 23 hours) | pH ([5]; 12 hours) | pH ([5]; 23 hours)
CCCCCCCC/C=C\CCCCCCCC(=O)O [Oleic Acid, oleic acid] | acceptable replacement value for polysorbate 80 | not as good a replacement for polysorbate 80 as sunflower lecithin | not as effective a replacement for polysorbate 80 as sunflower lecithin | not as good a replacement | somewhat effective as a polysorbate 80 replacement | – | – | – | – | – | – | – | – | – | – | – | – | – | – | –
polysorbate 80 | – | – | – | – | – | 3.9 | 3.7 | 0.57% | 4.8 | 0.84% | 4.5 | 4.0 | 3.7 | 0.99% | 4.2 | 3.9 | 3.8 | 3.7 | 4.2 | 4.1
